From patent US10815457B2, “Active CXCR4+ immune cells and methods for their production and use” (UNIVERSITY OF PITTSBURGH—OF THE COMMONWEALTH SYSTEM OF …, priority 2014, dated 2020)
“Also recorded” adds a separate entry of the source.

Legend:
CXCR4 on NK cells = assay: CXCR4 expression on IL-12+IL-15-activated NK cells, by flow cytometry; assay type: cell-based; settings: overnight with IL-12p70 (20 ng/ml) and IL-15 (20 ng/ml), 200 μM CoCl2
Procedure: Negatively Isolated (EasySep) NK cells were cultured overnight with NK cell activators, IL-12p70 (20 ng/ml) and IL-15 (20 ng/ml), in absence or presence of 200 μM CoCl2 (Hypoxia mimic; HIF1α activator). Absolute numbers (A) and percentage (B) of CXCR4 NK cells are calculated by flow cytometry and are depicted in the figure.

[1] = system: CXCR4+/GZMB+ CD8+ T cells; assay: FACS staining for CXCR4 and GZMB in ex vivo induced CTLs exposed to a hypoxia mimic; assay type: cell-based, human
[2] = system: CXCL12-responsive GZMB+ CD8+ T cells; assay: Chemotaxis of GZMB+ CD8+ T cells to recombinant CXCL12 (transwell); assay type: cell-based, human; settings: 50 ng/ml CXCL12; cells primed with CD3/CD28 + IL-12 or type-1 polarized DCs, then DMOG

Structure (SMILES): [Cl][Co][Cl] [CoCl2, cobalt chloride]
- CXCR4 expression on NK cells (absolute numbers and percentage) (CXCR4 on NK cells): increases CXCR4 expression

Structure (SMILES): COC(=O)CNC(=O)C(=O)OC [DMOG, dimethyloxalylglycine]
- CXCR4 expression (CXCR4+/GZMB+ double positive CD8+ T cells) ([1]; CD3-CD28 beads +/- IL-12 (5 ng/ml) 6 days or type-1 polarized DCs, then 3 days with 200 μM DMOG): promote high levels of CXCR4; also recorded: increases CXCR4 expression
- intracellular GZMB expression in arising effector cells ([1]; CD8+ T cells primed in type-1-polarizing conditions, DMOG): without affecting the intracellular GZMB expression
- responsiveness to CXCL12 (migration of GZMB+ CD8+ T cells) [2]: highest migration of GZMB^+ CTL; also recorded: increases CXCR4 expression and responsiveness to CXCL12
